# Experiments:
# PLK1 [1] = molecular target: T1, PLK1 (Homo sapiens, UniProt P53350); test: In vitro PLK1 ELISA assay (biochemical); parameters: purchased Cell Signalling 7728
# Procedure, shortened: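 Commercial PLK1 phosphorylates neutravidin-captured biotinylated CHK2 peptide for 45 min at room temperature in HEPES pH 7.2 with Mg2+/Mn2+/DTT, compounds at 10 μM to 0.005 μM. Phospho-CHK2(T68) antibody plus HRP secondary gives chemiluminescent read-out used for IC50.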
# PLK1 [2] = molecular target: T1, PLK1; test: Cellular PLK1 assay in K562 cells overexpressing CDC25C; type: cell-based; parameters: endogenous in cells; host or cells: K562 (human chronic myelogenous leukemia) overexpressing CDC25C, nocodazole-arrested; settings: nocodazole arrested, cdc25c p-Ser198 readout
# Procedure, shortened: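 K562 cells overexpressing CDC25C were arrested with 333 nM nocodazole for 18 h at 37 °C, then exposed to compound at 8 points from 10 μM to 0.005 μM in duplicate for 120 min. After fixation and permeabilization, cells were stained for cdc25c pSer198 with a PE secondary and read by flow cytometry, 10,000 cells per well.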
# [3] = ELISA, CHK2-derived peptide substrate, read-out: PLK1 IC50 (μM) biochemical assay
# [4] = read-out: IC50 in biochemical in vitro PLK1 ELISA assay (less than 10 μM)
# [5] = read-out: IC50 in biochemical ELISA assay (less than 0.01 μM)
# T1 sequence (P53350 whole entry): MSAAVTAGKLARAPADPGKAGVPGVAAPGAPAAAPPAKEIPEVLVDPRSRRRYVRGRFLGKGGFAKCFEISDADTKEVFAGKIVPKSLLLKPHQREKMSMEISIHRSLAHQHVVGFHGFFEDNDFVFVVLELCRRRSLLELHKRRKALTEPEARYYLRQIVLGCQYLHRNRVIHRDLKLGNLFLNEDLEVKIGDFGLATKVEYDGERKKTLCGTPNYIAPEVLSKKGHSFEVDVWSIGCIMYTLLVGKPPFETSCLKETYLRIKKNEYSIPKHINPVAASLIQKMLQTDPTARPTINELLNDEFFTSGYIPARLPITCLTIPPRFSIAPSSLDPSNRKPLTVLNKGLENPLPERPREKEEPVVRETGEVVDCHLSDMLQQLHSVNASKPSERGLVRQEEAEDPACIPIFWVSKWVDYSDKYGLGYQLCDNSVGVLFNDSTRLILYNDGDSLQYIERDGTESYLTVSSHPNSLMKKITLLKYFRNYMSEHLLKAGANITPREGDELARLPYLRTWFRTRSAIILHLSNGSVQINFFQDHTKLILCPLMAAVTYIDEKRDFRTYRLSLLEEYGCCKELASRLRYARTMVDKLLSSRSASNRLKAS
Compound,IC50 (PLK1 [1]; [3]),IC50 (PLK1 [2]),IC50 (PLK1 [1]; [4]),IC50 (PLK1 [1]; [5])
"Cc1cc(Nc2ncc(C)c(Nc3ccc4c(n3)N(CC3CCCCC3)C(=O)CO4)n2)ccc1N1CCN(C)CC1 [compound 119, 4-(cyclohexylmethyl)-6-(5-methyl-2-(3-methyl-4-(4-methylpiperazin-1-yl)phenylamino)pyrimidin-4-ylamino)-2H-pyrido[3,2-b][1,4]oxazin-3(4H)-one]",≥ 10 µM,≥ 10 µM,–,–
"CN1CCN(c2cccc(Nc3ncc(F)c(N(CC4CC4)c4ccc5c(n4)NCCO5)n3)c2)CC1 [compound 53, N4-(cyclopropylmethyl)-N4-(3,4-dihydro-2H-pyrido[3,2-b][1,4]oxazin-6-yl)-5-fluoro-N2-(3-(4-methylpiperazin-1-yl)phenyl)pyrimidine-2,4-diamine]",0.5 to 5 µM,≥ 10 µM,< 10 µM,–
"Cc1cc(Nc2ncc(F)c(Nc3ccc4c(n3)N(CC3CCC3)C(=O)CO4)n2)ccc1N1CCN(C)CC1 [compound 112, 4-(cyclobutylmethyl)-6-(5-fluoro-2-(3-methyl-4-(4-methylpiperazin-1-yl)phenylamino)pyrimidin-4-ylamino)-2H-pyrido[3,2-b][1,4]oxazin-3(4H)-one]",≥ 10 µM,≥ 10 µM,–,–
"CN1CCN(c2cc(Nc3ncc(F)c(Nc4ccc5c(n4)NC(=O)CO5)n3)cc(OC(C)(C)C)c2)CC1 [compound 47, 6-(2-(3-tert-butoxy-5-(4-methylpiperazin-1-yl)phenylamino)-5-fluoro-pyrimidin-4-ylamino)-2H-pyrido[3,2-b][1,4]oxazin-3(4H)-one]",< 0.5 µM,< 0.5 µM,< 10 µM,–
"Cc1cc(Nc2ncc(C)c(Nc3ccc4c(n3)NC(=O)C(C)(C)O4)n2)ccc1N1CCN(C)CC1 [compound 96, 2,2-dimethyl-6-(5-methyl-2-(3-methyl-4-(4-methylpiperazin-1-yl)phenylamino)pyrimidin-4-ylamino)-2H-pyrido[3,2-b][1,4]oxazin-3(4H)-one]",5 to 10 µM,≥ 10 µM,< 10 µM,–
"CCCN1C(=O)COc2ccc(Nc3nc(Nc4ccc(N5CC6CC5CN6S(C)(=O)=O)c(C)c4)ncc3F)nc21 (stereo not drawn) [compound 31, 6-(5-fluoro-2-(3-methyl-4-(5-(methylsulfonyl)-2,5-diazabicyclo[2.2.1]heptan-2-yl)phenylamino)pyrimidin-4-ylamino)-4-propyl-2H-pyrido[3,2-b][1,4]oxazin-3(4H)-one]",≥ 10 µM,0.5 to 5 µM,–,–
"Cc1cnc(Nc2cccc(N3CCN(C)CC3)c2)nc1Nc1ccc2c(n1)N(C1CCCC1)C(=O)CO2 [compound 116, 4-cyclopentyl-6-(5-methyl-2-(3-(4-methylpiperazin-1-yl)phenylamino)pyrimidin-4-ylamino)-2H-pyrido[3,2-b][1,4]oxazin-3(4H)-one]",0.5 to 5 µM,≥ 10 µM,< 10 µM,–
"CC(C)Oc1ccc(N2CCN(C)CC2)cc1Nc1ncc(F)c(Nc2ccc3c(n2)NCCO3)n1 [compound 23, N4-(3,4-dihydro-2H-pyrido[3,2-b][1,4]oxazin-6-yl)-5-fluoro-N2-(2-isopropoxy-5-(4-methylpiperazin-1-yl)phenyl)pyrimidine-2,4-diamine]",< 0.5 µM,0.5 to 5 µM,< 10 µM,–
"Cc1ccc(Nc2ncc(F)c(Nc3ccc4c(n3)NCCO4)n2)cc1N1CCN(C)CC1 [compound 22, N4-(3,4-dihydro-2H-pyrido[3,2-b][1,4]oxazin-6-yl)-5-fluoro-N2-(4-methyl-3-(4-methylpiperazin-1-yl)phenyl)pyrimidine-2,4-diamine]",≥ 10 µM,≥ 10 µM,–,–
"CN1CCN(c2cc(Nc3ncc(F)c(Nc4ccc5c(n4)NC(=O)CO5)n3)cc(C3CC3)c2)CC1 [compound 50, 6-(2-(3-cyclopropyl-5-(4-methylpiperazin-1-yl)phenylamino)-5-fluoro-pyrimidin-4-ylamino)-2H-pyrido[3,2-b][1,4]oxazin-3(4H)-one]",< 0.5 µM,< 0.5 µM,< 10 µM,< 0.01 µM

# Continued, values first:
IC50 (PLK1 [1]; [3]),IC50 (PLK1 [2]),IC50 (PLK1 [1]; [4]),IC50 (PLK1 [1]; [5]),Compound
≥ 10 µM,0.5 to 5 µM,–,–,"Cc1cc(Nc2ncc(C)c(Nc3ccc4c(n3)N(Cc3ccccc3)C(=O)CO4)n2)ccc1N1CCN(C)CC1 [compound 121, 4-benzyl-6-(5-methyl-2-(3-methyl-4-(4-methylpiperazin-1-yl)phenylamino)pyrimidin-4-ylamino)-2H-pyrido[3,2-b][1,4]oxazin-3(4H)-one]"
5 to 10 µM,≥ 10 µM,< 10 µM,–,"COc1ccc(CN2C(=O)COc3ccc(Nc4nc(Nc5cccc(N6CCN(C)CC6)c5)ncc4C)nc32)cc1 [compound 125, 4-(4-methoxybenzyl)-6-(5-methyl-2-(3-(4-methylpiperazin-1-yl)phenylamino)pyrimidin-4-ylamino)-2H-pyrido[3,2-b][1,4]oxazin-3(4H)-one]"
≥ 10 µM,≥ 10 µM,–,–,"CCCN1C(=O)COc2ccc(Nc3nc(Nc4ccc(N5CCNCC5)c(C(F)(F)F)c4)ncc3F)nc21 [compound 138, 6-(5-fluoro-2-(4-(piperazin-1-yl)-3-(trifluoromethyl)phenyl-amino)pyrimidin-4-ylamino)-4-propyl-2H-pyrido[3,2-b][1,4]oxazin-3(4H)-one]"
≥ 10 µM,≥ 10 µM,–,–,"COc1ccc(CN2C(=O)COc3ccc(Nc4nc(Nc5ccc(N6CCN(C)CC6)c(C)c5)ncc4F)nc32)cc1 [compound 124, 6-(5-fluoro-2-(3-methyl-4-(4-methylpiperazin-1-yl)phenylamino)pyrimidin-4-ylamino)-4-(4-methoxybenzyl)-2H-pyrido[3,2-b][1,4]oxazin-3(4H)-one]"
≥ 10 µM,0.5 to 5 µM,–,–,"COc1ccc(CN2C(=O)COc3ccc(Nc4nc(Nc5ccc(N6CCN(C)CC6)c(C)c5)ncc4C)nc32)cc1 [compound 126, 4-(4-methoxybenzyl)-6-(5-methyl-2-(3-methyl-4-(4-methylpiperazin-1-yl)phenylamino)pyrimidin-4-ylamino)-2H-pyrido[3,2-b][1,4]oxazin-3(4H)-one]"
< 0.5 µM,0.5 to 5 µM,< 10 µM,< 0.01 µM,"Cc1cnc(Nc2cccc(N3CCN(C)CC3)c2)nc1Nc1ccc2c(n1)N(CC1CC1)C(=O)CO2 [compound 129, 4-(cyclopropylmethyl)-6-(5-methyl-2-(3-(4-methylpiperazin-1-yl)phenylamino)pyrimidin-4-ylamino)-2H-pyrido[3,2-b][1,4]oxazin-3(4H)-one]"
≥ 10 µM,≥ 10 µM,–,–,"CCCN1C(=O)COc2ccc(Nc3nc(Nc4ccc(N5CCN(C)CC5)c(C(F)(F)F)c4)ncc3F)nc21 [compound 135, 6-(5-fluoro-2-(4-(4-methylpiperazin-1-yl)-3-(trifluoromethyl)phenyl-amino)pyrimidin-4-ylamino)-4-propyl-2H-pyrido[3,2-b][1,4]oxazin-3(4H)-one]"
≥ 10 µM,≥ 10 µM,–,–,"CCCN1C(=O)COc2ccc(Nc3nc(Nc4ccc(N5CCN(S(C)(=O)=O)CC5)c(C(F)(F)F)c4)ncc3F)nc21 [compound 137, 6-(5-fluoro-2-(4-(4-(methylsulfonyl)piperazin-1-yl)-3-(trifluoro-methyl)phenyl-amino)pyrimidin-4-ylamino)-4-propyl-2H-pyrido[3,2-b][1,4]oxazin-3(4H)-one]"
≥ 10 µM,≥ 10 µM,–,–,"CCCN1C(=O)COc2ccc(Nc3nc(Nc4ccc(N5CCN(C)CC5)c(C(F)(F)F)c4)ncc3C)nc21 [compound 136, 6-(5-methyl-2-(4-(4-methylpiperazin-1-yl)-3-(trifluoromethyl)phenyl-amino)pyrimidin-4-ylamino)-4-propyl-2H-pyrido[3,2-b][1,4]oxazin-3(4H)-one]"

# Reference: patent US9040527B2, “Pyrimidinediamine kinase inhibitors” (Rigel Pharmaceuticals, Inc., priority 2008, dated 2015)
